Experimental data as given in patent US9975854B2, “Benzomorphan analogs and use thereof” (Purdue Pharma L.P., priority 2014, dated 2018).
Where two headings read alike, the source gives them in different places.

Biological target: μ-opioid receptor (Homo sapiens (Human), UniProt P35372)
Experiment: μ-opioid receptor [35S]GTPγS functional assay, HEK-293 or CHO cells
Assay type: biochemical
Settings: for Emax: relative to DAMGO
Procedure: [^35S]GTPγS functional assays were conducted using freshly thawed μ-receptor membranes prepared in-house from a cell line expressing recombinant opioid receptor in a HEK-293, CHO or U-2 OS cell background, or purchased from a commercial source (Perkin Elmer, Shelton, Conn.; or DiscovRx, Fremont, Calif.). Assay reactions were prepared by sequentially adding the following reagents to binding buffer (100 mM NaCl, 10 mM MgCl2, 20 mM HEPES, pH 7.4) on ice (final concentrations indicated): membrane protein (0.026 mg/mL), saponin ([…]), GDP ([…]) and [^35S]GTPγS (0.20 nM; Perkin Elmer, Shelton, Conn.). The prepared membrane solution (190 μl/well) was transferred to 96-shallow well polypropylene plates containing 10 μl of 20× concentrated stock solutions of the agonist [D-Ala^2, N-methyl-Phe^4 Gly-ol^5]-enkephalin (DAMGO) prepared in dimethyl sulfoxide (DMSO). Plates were incubated for 30 min at about 25° C. with shaking. Reactions were terminated by rapid filtration onto 96-well Unifilter GF/B filter plates (Perkin Elmer, Shelton, Conn.) using a 96-well tissue harvester (Perkin Elmer, Shelton, Conn.) followed by three filtration washes with 200 μl of ice-cold wash buffer (10 mM NaH2PO4, 10 mM Na2HPO4, pH 7.4). Filter plates were subsequently dried at 50° C. for 2-3 hr. BetaScint scintillation cocktail (Perkin Elmer, Shelton, Conn.) was added (50 μl/well) and plates were counted using a Packard Top-Count for 1 min/well. Data were analyzed using the sigmoidal dose-response curve fitting functions in GraphPad PRISM v. 3.0, or an in-house function for non-linear, sigmoidal dose-response curve-fitting.
μ GTP EC50 is the concentration of a compound providing 50% of the maximal response for the compound at a μ-opioid receptor.
μ GTP Emax (%) is the maximal effect elicited by a compound relative to the effect elicited by DAMGO, a standard p agonist. Generally, the μ GTP Emax (%) value measures the efficacy of a compound to treat or prevent pain or other Conditions.
In TABLE 4, activity response of certain Compounds of the Invention to the μ- and κ-opioid receptors was determined as described above for functional assays using HEK-293 or CHO cells.

[1] = HEK-293 or CHO cells, read-out: GTPγS μ EC50
[2] = HEK-293 or CHO cells, bound given in uM, read-out: GTPγS μ EC50

## CN1CC[C@@]2(C)c3cc(O)ccc3C[C@@H]1[C@H]2N(CCO)CCc1ccc(F)cc1 [Compound 77, (2R,6S,11S)-11-((4-fluorophenethyl)(2-hydroxyethyl)amino)-3,6-dimethyl-1,2,3,4,5,6-hexahydro-2,6-methanobenzo[d]azocin-8-ol]
[1]
  EC50: 0.00796 ± 0.00069 µM
HEK-293 or CHO cells
  Emax: 87 ± 1.73%

## CN(CC1CCN(S(=O)(=O)C2CCCC2)CC1)C1[C@H]2Cc3ccc(O)cc3C1(C)CCN2C (stereo in doubt) [Compound 60, (2R,6S,11S)-11-(((1-(cyclopentylsulfonyl)piperidin-4-yl)methyl)(methyl)amino)-3,6-dimethyl-1,2,3,4,5,6-hexahydro-2,6-methanobenzo[d]azocin-8-ol]
[1]
  EC50: 0.012 ± 0.00174 µM
HEK-293 or CHO cells
  Emax: 22.3 ± 2.34%

## CCN(C(=O)Nc1ccc(C#N)cc1)[C@@H]1[C@H]2Cc3ccc(O)cc3[C@]1(C)CCN2C [Compound 93, 3-(4-cyanophenyl)-1-ethyl-1-((2R,6S,11 S)-8-hydroxy-3,6-dimethyl-1,2,3,4,5,6-hexahydro-2,6-methanobenzo[d]azocin-11-yl)urea]
[1]
  EC50: 2.29 ± 0.404 µM
HEK-293 or CHO cells
  Emax: 32 ± 2.48%

## CN1CC[C@@]2(C)c3cc(O)ccc3C[C@@H]1[C@@H]2N(C)S(=O)(=O)Cc1ccccc1 [Compound 100, N-((2R,6S,11R)-8-hydroxy-3,6-dimethyl-1,2,3,4,5,6-hexahydro-2,6-methanobenzo[d]azocin-11-yl)-N-methyl-1-phenylmethane-sulfonamide]
[1]
  EC50: 8.95 ± 2.04 µM
HEK-293 or CHO cells
  Emax: 25 ± 1.53%

## CCS(=O)(=O)N1CCC(CN(C)[C@H]2[C@H]3Cc4ccc(O)cc4[C@]2(C)CCN3C)CC1 [Compound 56, (2R,6S,11R)-11-(((1-(ethylsulfonyl)piperidin-4-yl)methyl)(methyl)amino)-3,6-dimethyl-1,2,3,4,5,6-hexahydro-2,6-methanobenzo[d]azocin-8-ol]
[1]
  EC50: 0.0967 ± 0.00987 µM
HEK-293 or CHO cells
  Emax: 62 ± 1.53%

## CN1CCC2(C)c3cc(O)ccc3C[C@@H]1C2NC(=O)/C=C/c1ccoc1 (stereo in doubt) [Compound 32, (E)-3-(furan-3-yl)-N-((2R,6S,11S)-8-hydroxy-3,6-dimethyl-1,2,3,4,5,6-hexahydro-2,6-methanobenzo[d]azocin-11-yl)acrylamide]
[2]
  EC50: > 20 µM
HEK-293 or CHO cells
  Emax: 2.33 ± 0.88%

## CN1CC[C@@]2(C)c3cc(O)ccc3C[C@@H]1[C@H]2NCCc1ccc(S(C)(=O)=O)cc1 [Compound 11, (2R,6S,11S)-3,6-dimethyl-11-((4-(methylsulfonyl)phenethyl)amino)-1,2,3,4,5,6-hexahydro-2,6-methanobenzo[d]azocin-8-ol]
[1]
  EC50: 0.0356 ± 0.0059 µM
HEK-293 or CHO cells
  Emax: 16.7 ± 0.33%

## CN1CC[C@@]2(C)c3cc(C(N)=O)ccc3C[C@@H]1[C@H]2N(C)C(=O)Nc1ccc(C#N)cc1 [Compound 120, (2R,6S,11S)-11-(3-(4-cyanophenyl)-1-methylureido)-3,6-dimethyl-1,2,3,4,5,6-hexahydro-2,6-methanobenzo[d]azocine-8-carboxamide]
[2]
  EC50: > 20 µM
HEK-293 or CHO cells
  Emax: -0.33 ± 0.67%

## CCN(CCc1ccc(S(C)(=O)=O)cc1)[C@H]1[C@H]2Cc3ccc(O)cc3[C@]1(C)CCN2C [Compound 98, (2R,6S,11R)-11-(ethyl(4-(methylsulfonyl)phenethyl)amino)-3,6-dimethyl-1,2,3,4,5,6-hexahydro-2,6-methanobenzo[d]azocin-8-ol]
[1]
  EC50: 0.00064 ± 8.2e-05 µM
HEK-293 or CHO cells
  Emax: 44.6 ± 0.6%

## CN1CC[C@@]2(C)c3cc(O)ccc3C[C@@H]1[C@@H]2N(C)C(=O)Cc1ccc(S(C)(=O)=O)cc1 [Compound 28, N-((2R,6S,11R)-8-hydroxy-3,6-dimethyl-1,2,3,4,5,6-hexahydro-2,6-methanobenzo[d]azocin-11-yl)-N-methyl-2-(4-(methylsulfonyl)phenyl)acetamide]
[1]
  EC50: 0.182 ± 0.012 µM
HEK-293 or CHO cells
  Emax: 84.7 ± 1.2%

## CN1CCC2(C)c3cc(O)ccc3C[C@@H]1C2NC(=O)CCC(=O)Nc1ccc(F)cc1F (stereo in doubt) [Compound 34, N^1-(2,4-difluorophenyl)-N^4-((2R,6S,11S)-8-hydroxy-3,6-dimethyl-1,2,3,4,5,6-hexahydro-2,6-methanobenzo[d]azocin-11-yl)succinamide]
[2]
  EC50: > 20 µM
HEK-293 or CHO cells
  Emax: 2.67 ± 0.33%

## CN1CC[C@@]2(C)c3cc(O)ccc3C[C@@H]1[C@@H]2NCCC1CCCCC1 [Compound 16, (2R,6S,11R)-11-((2-cyclohexylethyl)amino)-3,6-dimethyl-1,2,3,4,5,6-hexahydro-2,6-methanobenzo[d]azocin-8-ol]
[1]
  EC50: 1.27 ± 0.0901 µM
HEK-293 or CHO cells
  Emax: 77.3 ± 3.84%

## CN1CC[C@@]2(C)c3cc(C(N)=O)ccc3C[C@@H]1[C@H]2NCCc1ccccc1 [Compound 115, (2R,6S,11S)-3,6-dimethyl-11-(phenethylamino)-1,2,3,4,5,6-hexahydro-2,6-methanobenzo[d]azocine-8-carboxamide]
[1]
  EC50: 0.525 ± 0.0263 µM
HEK-293 or CHO cells
  Emax: 83.4 ± 1.58%

## CCN(C(=O)Nc1ccc(C#N)cc1)[C@H]1[C@H]2Cc3ccc(O)cc3[C@]1(C)CCN2C [Compound 91, 3-(4-cyanophenyl)-1-ethyl-1-((2R,6S,11R)-8-hydroxy-3,6-dimethyl-1,2,3,4,5,6-hexahydro-2,6-methanobenzo[d]azocin-11-yl)urea]
[1]
  EC50: 0.0463 ± 0.0041 µM
HEK-293 or CHO cells
  Emax: 75.3 ± 2.19%

## CN1CC[C@@]2(C)c3cc(O)ccc3C[C@@H]1[C@@H]2NC(=O)Cc1ccc(S(C)(=O)=O)cc1 [Compound 33, N-((2R,6S,11R)-8-hydroxy-3,6-dimethyl-1,2,3,4,5,6-hexahydro-2,6-methanobenzo[d]azocin-11-yl)-2-(4-(methylsulfonyl)phenyl)acetamide]
[1]
  EC50: 5.28 ± 1.26 µM
HEK-293 or CHO cells
  Emax: 13%

## CCn1c(NC(=O)N(C)[C@H]2[C@H]3Cc4ccc(OC)cc4[C@]2(C)CCN3C)nc2ccccc21 [Compound 110, 3-(1-Ethyl-1H-benzo[d]imidazol-2-yl)-1-((2R,6S,11R)-8-methoxy-3,6-dimethyl-1,2,3,4,5,6-hexahydro-2,6-methanobenzo[d]azocin-11-yl)-1-methylurea]
[1]
  EC50: 0.851 ± 0.161 µM
HEK-293 or CHO cells
  Emax: 89.2 ± 6.05%

## CN1CC[C@]2(C)c3cc(O)ccc3CC1[C@@H]2C(=O)N1CCCCC1 [Compound 106, ((6S,11R)-8-hydroxy-3,6-dimethyl-1,2,3,4,5,6-hexahydro-2,6-methanobenzo[d]azocin-11-yl)(piperidin-1-yl)methanone]
[1]
  EC50: 4.09 ± 0.334 µM
HEK-293 or CHO cells
  Emax: 49 ± 1.73%

## CN1CC[C@@]2(C)c3cc(C(=O)O)ccc3C[C@@H]1C2(O)O [Compound 117, (2R,6S)-11,11-dihydroxy-3,6-dimethyl-1,2,3,4,5,6-hexahydro-2,6-methanobenzo[d]azocine-8-carboxylic acid]
[2]
  EC50: > 20 µM
HEK-293 or CHO cells
  Emax: 0%

## CN1CC[C@@]2(C)c3cc(C(N)=O)ccc3C[C@@H]1[C@@H]2N(C)C(=O)Nc1ccc(C#N)cc1 [Compound 119, (2R,6S,11R)-11-(3-(4-cyanophenyl)-1-methylureido)-3,6-dimethyl-1,2,3,4,5,6-hexahydro-2,6-methanobenzo[d]azocine-8-carboxamide]
[1]
  EC50: 4.95 ± 0.508 µM
HEK-293 or CHO cells
  Emax: 43.9 ± 1.88%

## CN1CC[C@@]2(C)c3cc(O)ccc3C[C@@H]1[C@@H]2N(C)C(=O)Nc1nc2ccccc2o1 [Compound 121, 3-(Benzo[d]oxazol-2-yl)-1-((2R,6S,11R)-8-hydroxy-3,6-dimethyl-1,2,3,4,5,6-hexahydro-2,6-methanobenzo[d]azocin-11-yl)-1-methylurea]
[1]
  EC50: 0.0824 ± 0.0104 µM
HEK-293 or CHO cells
  Emax: 60.1 ± 4.74%

## CN1CC[C@@]2(C)c3cc(O)ccc3C[C@@H]1[C@H]2NCCCCNC(=O)OC(C)(C)C [Compound 19, Tert-butyl (4-(((2R,6S,11S)-8-hydroxy-3,6-dimethyl-1,2,3,4,5,6-hexahydro-2,6-methanobenzo[d]azocin-11-yl)amino)butyl)carbamate]
[2]
  EC50: > 20 µM
HEK-293 or CHO cells
  Emax: 0%

## CN1CC[C@@]2(C)c3cc(C(N)=O)ccc3C[C@@H]1C2(O)O [Compound 118, (2R,6S)-11,11-dihydroxy-3,6-dimethyl-1,2,3,4,5,6-hexahydro-2,6-methanobenzo[d]azocine-8-carboxamide]
  EC50: 17 ± 0.566 µM
HEK-293 or CHO cells
  Emax: 6.56 ± 0.6%

## CN1CC[C@@]2(C)c3cc(O)ccc3C[C@@H]1[C@@H]2N(C)C(=O)Nc1nc2ccccc2[nH]1 [Compound 107, 3-(1H-benzo[d]imidazol-2-yl)-1-((2R,6S,11R)-8-hydroxy-3,6-dimethyl-1,2,3,4,5,6-hexahydro-2,6-methanobenzo[d]azocin-11-yl)-1-methylurea]
[1]
  EC50: 0.00681 ± 0.00286 µM
HEK-293 or CHO cells
  Emax: 30.6 ± 1.51%

## CN1CCC2(C)c3cc(O)ccc3C[C@@H]1C2NS(=O)(=O)Cc1ccccc1 (stereo in doubt) [Compound 101, N-((2R,6S,11S)-8-hydroxy-3,6-dimethyl-1,2,3,4,5,6-hexahydro-2,6-methanobenzo[d]azocin-11-yl)-1-phenylmethanesulfonamide]
[2]
  EC50: > 20 µM
HEK-293 or CHO cells
  Emax: 6 ± 4.06%
